# In ChEMBL document CHEMBL5725343, “Amino-substituted isothiazoles” (2017):
# pIC50: −log10 of the molar value.
# Legend:
# [1] = molecular target: Mitotic checkpoint serine/threonine-protein kinase BUB1 (Homo sapiens, UniProt O43683); assay: Bub1 Kinase Assay: Recombinant fusion proteins of GST and human CDK2 and of GST and human CycE, expressed in insect cells (Sf9) and purified by Glutathion-Sepharose affinity chromatography, were purchased from ProQinase GmbH (Freiburg, Germany). As substrate for the kinase reaction biotinylated peptide biotin-Ttds-YISPLKSPYKISEG (C-terminus in amid form) was used which can be purchased e.g. form the company JERINI peptide technologies (Berlin, Germany). For the assay 50 nl of a 100 fold concentrated solution of the test compound in DMSO was pipetted into a black low volume 384 well microtiter plate (Greiner Bio-One, Frickenhausen, Germany), 2 ul of a solution of CDK2/CycE in aqueous assay buffer [50 mM Tris/HCl pH 8.0, 10 mM MgCl2, 1.0 mM dithiothreitol, 0.1 mM sodium ortho-vanadate, 0.01% (v/v) Nonidet-P40 (Sigma)] were added and the mixture was incubated for 15 min at 22° C. to allow pre-binding of the test compounds to the enzyme before the start of the kinase reaction. Then the kinase reaction was started by the addition of 3 ul of a solution of adenosine-tri-phosphate (ATP, 16.7 uM=>final conc. in the 5 ul assay volume is 10 uM) and substrate (1.25 uM=>final conc. in the 5 ul assay volume is 0.75 uM) in assay buffer and the resulting mixture was incubated for a reaction time of 25 min at 22° C. […]
# Mitotic checkpoint serine/threonine-protein kinase BUB1, sequence (O43683 whole entry, the tested form may be a part): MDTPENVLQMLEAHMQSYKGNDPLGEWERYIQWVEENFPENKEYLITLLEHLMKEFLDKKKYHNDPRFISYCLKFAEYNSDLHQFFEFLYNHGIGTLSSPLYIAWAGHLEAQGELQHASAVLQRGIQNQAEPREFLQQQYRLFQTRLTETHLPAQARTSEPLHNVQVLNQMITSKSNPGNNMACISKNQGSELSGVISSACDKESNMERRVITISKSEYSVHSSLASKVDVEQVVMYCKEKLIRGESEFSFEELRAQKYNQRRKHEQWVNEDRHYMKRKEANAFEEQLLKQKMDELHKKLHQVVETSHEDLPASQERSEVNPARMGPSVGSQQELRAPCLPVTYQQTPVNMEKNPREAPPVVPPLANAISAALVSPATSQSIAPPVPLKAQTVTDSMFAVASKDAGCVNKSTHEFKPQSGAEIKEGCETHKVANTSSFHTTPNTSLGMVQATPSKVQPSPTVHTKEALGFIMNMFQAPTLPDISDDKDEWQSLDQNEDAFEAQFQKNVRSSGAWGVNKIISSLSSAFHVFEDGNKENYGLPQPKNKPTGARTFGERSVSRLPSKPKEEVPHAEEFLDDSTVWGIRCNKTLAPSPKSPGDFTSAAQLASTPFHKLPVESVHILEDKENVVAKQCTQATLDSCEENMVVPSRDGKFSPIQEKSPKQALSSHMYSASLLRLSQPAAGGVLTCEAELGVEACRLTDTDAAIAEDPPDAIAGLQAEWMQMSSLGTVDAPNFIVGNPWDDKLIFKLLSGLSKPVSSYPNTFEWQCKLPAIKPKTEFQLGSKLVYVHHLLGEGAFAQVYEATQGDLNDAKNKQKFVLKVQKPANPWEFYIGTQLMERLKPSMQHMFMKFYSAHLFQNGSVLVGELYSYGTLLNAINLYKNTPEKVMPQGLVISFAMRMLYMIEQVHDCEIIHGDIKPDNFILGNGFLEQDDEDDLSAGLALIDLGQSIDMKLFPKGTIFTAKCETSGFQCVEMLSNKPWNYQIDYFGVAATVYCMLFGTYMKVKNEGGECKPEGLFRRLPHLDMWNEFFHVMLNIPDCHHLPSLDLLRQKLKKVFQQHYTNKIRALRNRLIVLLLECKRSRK
# [2] = molecular target: T1, Dual specificity protein kinase TTK (Homo sapiens, UniProt P33981); assay: Mps-1 Kinase Assay: N-terminally GST-tagged human full length recombinant Mps-1 kinase (purchased from Invitrogen, Karslruhe, Germany, cat. no PV4071) was used. As substrate for the kinase reaction a biotinylated peptide of the amino-acid sequence biotin-Ahx-PWDPDDADITEILG (C-terminus in amide form, purchased from Biosyntan GmbH, Berlin) was used. For the assay 50 nl of a 100-fold concentrated solution of the test compound in DMSO was pipetted into a black low volume 384 well microtiter plate (Greiner Bio-One, Frickenhausen, Germany), 2 ul of a solution of Mps-1 in assay buffer [0.1 mM sodium-ortho-vanadate, 10 mM MgCl2, 2 mM DTT, 25 mM Hepes pH 7.7, 0.05% BSA (w/v), 0.001% Pluronic F-127] were added and the mixture was incubated for 15 min at 22° C. to allow pre-binding of the test compounds to Mps-1 before the start of the kinase reaction. Then the kinase reaction was started by the addition of 3 ul of a solution of 16.7 uM adenosine-tri-phosphate (ATP, 16.7 uM=>final conc. in the 5 ul assay volume is 10 uM) and peptide substrate (1.67 uM=>final conc. in the 5 ul assay volume is 1 uM) in assay buffer and the resulting mixture was incubated for a reaction time of 60 min at 22° C. […]
# T1 sequence (P33981 whole entry): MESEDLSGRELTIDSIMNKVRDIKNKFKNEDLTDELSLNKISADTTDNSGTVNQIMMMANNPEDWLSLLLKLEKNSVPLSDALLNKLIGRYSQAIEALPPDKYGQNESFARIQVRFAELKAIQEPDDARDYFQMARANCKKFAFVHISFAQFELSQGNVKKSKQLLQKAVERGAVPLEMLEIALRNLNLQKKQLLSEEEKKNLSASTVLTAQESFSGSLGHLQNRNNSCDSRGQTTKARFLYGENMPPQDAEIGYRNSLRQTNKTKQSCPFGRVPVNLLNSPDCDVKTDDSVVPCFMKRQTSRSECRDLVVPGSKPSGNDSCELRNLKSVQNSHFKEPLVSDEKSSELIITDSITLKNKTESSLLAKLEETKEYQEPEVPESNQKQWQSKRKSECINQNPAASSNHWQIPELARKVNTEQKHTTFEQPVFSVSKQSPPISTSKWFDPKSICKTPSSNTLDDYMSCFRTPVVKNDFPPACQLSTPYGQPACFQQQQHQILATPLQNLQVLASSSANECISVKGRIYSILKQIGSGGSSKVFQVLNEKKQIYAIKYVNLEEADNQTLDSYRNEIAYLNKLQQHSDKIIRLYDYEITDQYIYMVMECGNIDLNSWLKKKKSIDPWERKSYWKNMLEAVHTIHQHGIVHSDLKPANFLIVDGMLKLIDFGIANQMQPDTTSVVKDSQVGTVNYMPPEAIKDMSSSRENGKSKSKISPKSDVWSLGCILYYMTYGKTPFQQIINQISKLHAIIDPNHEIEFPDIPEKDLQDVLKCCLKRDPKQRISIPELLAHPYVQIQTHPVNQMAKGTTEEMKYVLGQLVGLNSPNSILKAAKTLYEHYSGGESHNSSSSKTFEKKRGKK
# [3] = […]: N-terminally His6-tagged recombinant catalytic domain of human Bub1 (amino acids 704-1085), expressed in insect cells (Hi5) and purified by Ni-NTA affinity chromatography and subsequent size exclusion chromatography, was used as enzyme. As substrate for the kinase reaction the biotinylated peptide biotin-Ahx-VLLPKKSFAEPG (C-terminus in amid form) was used which can be purchased e.g. form the company Biosyntan (Berlin, Germany). For the assay 50 nl of a 100 fold concentrated solution of the test compound in DMSO was pipetted into a black low volume 384 well microtiter plate (Greiner Bio-One, Frickenhausen, Germany), 2 ul of a solution of Bub1 in aqueous assay buffer [50 mM Tris/HCl pH 7.5, 10 mM magnesium chloride (MgCl2), 200 mM potassium chloride (KCl), 1.0 mM dithiothreitol (DTT), 0.1 mM sodium ortho-vanadate, 1% (v/v) glycerol, 0.01% (w/v) bovine serum albumine (BSA), 0.005% (v/v) Trition X-100 (Sigma), 1x Complete EDTA-free protease inhibitor mixture (Roche)] were added and the mixture was incubated for 15 min at 22° C. to allow pre-binding of the test compounds to the enzyme before the start of the kinase reaction. […]
pIC50 [1],pIC50 [2],Structure (SMILES),pIC50 [3]
4.82,< 4.70,Cc1nsc(Nc2cncc(-n3cccn3)n2)c1C(=O)Nc1ccc(F)c(F)c1,–
< 4.70,< 4.70,Cc1nsc(Nc2cc(C#N)ccn2)c1C(=O)Nc1ccc(Oc2ccc(F)cc2F)nc1,–
–,–,COc1ccc(Oc2ccc(CC(=O)c3c(C)nsc3Nc3cc(C#N)ccn3)cn2)cc1,< 4.70
